Read-outs that look alike come from different tables or passages of the source.

In one series the test system is MCF-7. Nature of the series: Breast cancer panel proliferation inhibition, MCF-7. Type of series: cell-based. As to conditions: Homo sapiens. Here is the method: (§1) Inhibitory ability of compounds synthesized on the proliferation of three panels of cancer cell lines, including 5 breast cancer, 6 liver cancer, and 3 lung cancer cell lines were evaluated. Exponentially growing cells were seeded in the media of choice at various cell densities in 384-well plates with 20 ul per well and incubated overnight at 37° C., 5% CO2 incubator. Compounds were prepared as 10-point, 3-fold serial dilutions in DMSO, beginning at 6 mM. 1 μl of DMSO solutions from the compound stock plates were added to 99 ul of cell media (final top concentration of compound in the assay was 30 uM and the final concentration of DMSO was 0.5%). 20 μL of compound solutions in media were added to each well of plates with cells seeded. After adding compound solutions, assay plates were incubated for 8 and 12 days, respectively, at 37° C., 5% CO2. During this incubation period, cell media was changed every 4 days. After removing old media from cell plates, 40 ul of media with testing compounds dissolved, which were prepared by adding 1 ul of compound DMSO serial solutions to 199 ul of cell media, were added to the assay plates with the same layout as they were initially prepared. After 8 or 12 days, cell viability was measured using the CellTiter-Glo assay kit from Promega (Madison, Wis., USA) by quantitating the ATP present in the cell cultures. 20 μL of CellTiter-Glo reagent was added to each well of the cell plates. Luminescence was read after 10 minute of incubation with the Envision multiple plate reader from PerkinElmer (Waltham, Mass., USA). The concentrations of compounds inhibiting cell viability by 50% (IC50 values) were determined using a sigmoidal dose-response model (variable slopes, four parameters) in Prism 7 (La Jolla, Calif., USA).

Series [1] deals with Pancreatic Carcinoma MIA PaCa-2 cell. Description: Cell proliferation inhibition, MIA PaCa-2 (CellTiter-Glo). Type of series: cell-based. Conditions: Homo sapiens, MIA PaCa-2, incubated for 12 days (read after 8 or 12 days), read-out: IC50 (μM) MIA PaCa2. From the text:
Materials and Cell Lines: Z-138, U251, and MIA PaCa2 cells were purchased from ATCC (American Type Culture Collection, Manassas, Va.) and Chinese Academy of Science (Shanghai, China). Iscove's Modified Dulbecco's Medium (IMDM), Dulbecco's Modified Eagle Medium (DMEM), penicillin-streptomycin, heat inactivated fetal bovine serum (FBS), and horse serum was purchased from ThermoFisher, Waltham, Mass., USA. Corning 96- and 384-well cell culture plates were purchased from ThermoFisher, Waltham, Mass., USA. Cell-Titer Glo® was purchased from Promega Corporation, Madison, Wis., USA.
In order to evaluate the inhibitory ability of compounds synthesized on the proliferation of the Pancreatic Carcinoma MIA PaCa-2 cell, exponentially growing cells were seeded in the culture media of DMEM with 10% FBS, 2.5% horse serum, 1 mM of Sodium Pyruvate and 1% penicillin-streptomycin at a concentration of 2500 cells/ml in a 384-well plate with 20 ul per well and incubated overnight at 37° C., 5% CO2 incubator. Compounds were prepared as 10-point, 3-fold serial dilutions in DMSO, beginning at 6 mM. 1 μl of DMSO solutions from the compound stock plates were added to 99 ul of cell media (final top concentration of compound in the assay was 30 uM and the final concentration of DMSO was 0.5%). 20 μL of compound solutions in media were added to each well of MIA PaCa-2 cell plates. After adding compound solutions, assay plates were incubated for 12 days at 37° C., 5% CO2. During this incubation period, cell media was changed every 4 days. After removing old media from cell plates, 40 ul of media with testing compounds dissolved, which were prepared by adding 1 ul of compound DMSO serial solutions to 199 ul of cell media, were added to the assay plates with the same layout as they were initially prepared. After 8 or 12 days, cell viability was measured using the CellTiter-Glo assay kit from Promega (Madison, Wis., USA) by quantitating the ATP present in the cell cultures. 20 μL of CellTiter-Glo reagent was added to each well of the cell plates. Luminescence was read after 10 minute of incubation with the Envision multiple plate reader from PerkinElmer (Waltham, Mass., USA). The concentrations of compounds inhibiting cell viability by 50% (IC50 values) were determined using a sigmoidal dose-response model (variable slopes, four parameters) in Prism 7 (La Jolla, Calif., USA).
Background: In ATP-based viability assays light output follows the ATP content of the culture.

In another series the test system is MDA-MB-453. Description: Breast cancer panel proliferation inhibition, MDA-MB-453. Type of series: cell-based. Conditions: Homo sapiens. How it is done:
as §1

Series [2] in a line: Pharmacokinetic study in rat. It counts as in vivo, Male SD rats. As to conditions: male, SD; for plasma clearance / Vd: 2 mg/kg, Rat PK (IV) 2 mpk; for plasma clearance: read-out: Clint (converted); for Vd / AUC(0-t) / Cmax / Tmax / bioavailability / half-life: plasma; for Vd: read-out: Vss; for AUC(0-t) / Cmax / Tmax / bioavailability / half-life: 10 mg/kg, Rat PK (PO) 10 mpk; for half-life: read-out: T½ (converted). How it is done:
Male SD rats (185-265 g; purchased from Shanghai SLAC laboratory animal CO. LTD; n=18, with 3 per compound) were treated with a single dose of compounds being tested at 2 mg/kg by intravenous tail-vein injection and 10 mg/kg by oral gavage administration, with both doses formulated in 5% DMSO+45% PEG400 in water. Animals upon PO administration were fasted overnight and fed 4 hours after dosing. Animals upon IV administration were free access to food and water. The study was performed in accordance with the guidelines and standards of the Association for Assessment and Accreditation of Laboratory Animal Care (AAALAC International) and the National Institutes of Health.
The animal is restrained manually. Approximately 150 μL whole blood/time point is collected in K2EDTA tube via tail vein. Blood sample will be put on ice and centrifuged at 2000 g for 5 min to obtain plasma sample within 15 minutes. Plasma samples were stored at approximately −70° C. until analysis. An aliquot of 20 μL sample was added with 200 μL IS (Diclofenac, 100 ng/mL) in ACN. The mixture was vortexed for 10 min and centrifuged at 5800 rpm for 10 min. An aliquot of 1 μL supernatant was injected for LC-MS/MS analysis. For 10×-diluted sample, an aliquot of 2 μL sample was added with 18 μL blank plasma. The sample preparation procedure is same with no-diluted sample. Standard calibration curves were constructed by analyzing a series of control plasma aliquots containing Diclofenac (100 ng/mL) as an internal standard and 1.0-3,000 ng/mL testing compounds. Compound concentrations were determined with UPLC-MS/MS-22 (Triple Quad™ 6500).

Setting [3] is: MCF7, 192 h, MCF-7, 8 days, read-out: IC50 (μM) 8 days.
Where [4] appears, read: MCF7, 288 h, MCF-7, 12 days, read-out: IC50 (μM) 12 days.
The mark [5] stands for this setting: 192 h, MDA-MB-453, 8 days, read-out: IC50 (μM) 8 days.
Setting [6] is: 288 h, MDA-MB-453, 12 days, read-out: IC50 (μM) 12 days.

In general, IC50 refers to the concentration that inhibits the measured activity by half. As usually defined, the AUC(0-t) is the area under the concentration-time curve up to a stated or last time point. A lower AUC(0-t) goes with less exposure. The term Cmax denotes the highest concentration seen after dosing. For orientation: Tmax means the time at which the peak concentration occurs. As a reminder, the bioavailability is the share of a dose that reaches the circulation, judged against a reference dose that is usually intravenous. Read a high bioavailability as much systemic uptake. For `CC(=O)N1CCC(Nc2ccc3c(c2)C(=O)N(C[C@H](O)CN2CCc4ccccc4C2)CC3)CC1` [Compound 24a, (R)-7-((1-acetylpiperidin-4-yl)amino)-2-(3-(3,4-dihydroisoquinolin-2(1H)-yl)-2-hydroxypropyl)-3,4-dihydroisoquinolin-1(2H)-one], in the series with MCF-7 (setting [3]), the 50% inhibitory concentration (IC50) worked out at 0.016 µM. Moreover, in the series with MCF-7 (setting [4]), the IC50 is 0.026 µM. In addition, the 50% inhibitory concentration (IC50) in series [1] turned out to be 0.13 µM. Also, the IC50 in the series with MDA-MB-453 (setting [5]) is 0.28 µM. Also, in the series on MDA-MB-453 (setting [6]), the IC50 stood at 0.19 µM. In series [2], the plasma clearance was 31.7 mL/min/kg, the Vd turned out to be 7.15 ± 2.86 L/kg, the AUC(0-t) was 3280 ± 805 ng·h/mL and the Cmax is 798 ± 247 ng/mL. For the same compound, in series [2], the Tmax is 1.17 ± 0.764 h, the bioavailability came out at 62 ± 15.1% and the half-life is 3.13 ± 0.415 h.
Regarding `CC(=O)N1CCC(Nc2ccc3c(c2)C(=O)N(C[C@H](O)CN2CCc4ccccc4C2)CCO3)CC1` [Compound 52a, (R)-7-((1-acetylpiperidin-4-yl)amino)-4-(3-(3,4-dihydroisoquinolin-2(1H)-yl)-2-hydroxypropyl)-3,4-dihydrobenzo[f][1,4]oxazepin-5(2H)-one], in the series with MCF-7 (setting [3]), the IC50 was 0.025 µM. Besides, in the series on MCF-7 (setting [4]), the IC50 turned out to be 0.021 µM. For the same compound, in series [1], the IC50 came to 0.114 µM. In addition, the concentration for half-maximal inhibition (IC50) in the series on MDA-MB-453 (setting [5]) came to 0.14 µM. The 50% inhibitory concentration (IC50) with MDA-MB-453 (setting [6]) came to 0.06 µM. Besides, in series [2], the plasma clearance is 35.3 mL/min/kg, the Vd worked out at 5.02 ± 0.389 L/kg, the AUC(0-t) was 2260 ± 764 ng·h/mL and the peak concentration (Cmax) was found to be 563 ± 233 ng/mL. Moreover, in series [2], the Tmax is 1.33 ± 0.577 h, the bioavailability stood at 48.1 ± 16.1% and the half-life was 3.02 ± 0.413 h.
On to `CC(=O)N1CCC(Nc2cc(C(=O)NC[C@H](O)CN3CCc4ccccc4C3)ncn2)CC1` [Compound C3, reference compound], for which, in the series on MCF-7 (setting [4]), the IC50 worked out at 0.029 µM. The IC50 in series [1] amounted to 0.15 µM. Further, the half-inhibitory concentration (IC50) with MDA-MB-453 (setting [5]) was determined as 1.22 µM. Further, in the series on MDA-MB-453 (setting [6]), the half-maximal inhibitory concentration (IC50) stood at 0.16 µM. In series [2], the plasma clearance is 35.5 mL/min/kg, the Vd was 2.17 ± 0.0643 L/kg, the AUC(0-t) was determined as 1400 ± 601 ng·h/mL and the concentration peaked (Cmax) at 364 ± 82.5 ng/mL. In series [2], the time of peak concentration (Tmax) turned out to be 1.67 ± 0.577 h, the bioavailability stood at 30.5 ± 13% and the half-life is 1.5 ± 0.123 h.

Values taken from US11591326B2, “Inhibitors of protein arginine methyltransferase 5 (PRMT5), pharmaceutical products thereof, and methods thereof” (PHARMABLOCK SCIENCES (NANJING), INC., priority 2018, dated 2023).
